Measured values as given in patent US20200397728A1, “PHARMACEUTICAL FORMULATION FOR CARGLUMIC ACID” (RECORDATI S.p.A., priority 2019, published 2020).
Read-outs that look alike come from different tables or passages of the source.

Columns and labels:
[1] = Stability/compatibility of carglumic acid-excipient binary mixes, HPLC chromatographic purity; format: physicochemical
Procedure: Carglumic acid alone was also stored under the same conditions. […] Chromatographic purity have been tested for all the reported combinations and storage conditions. Under these chromatographic conditions the retention time (Rt) of carglumic acid is about 6.6 min. […] [table] [table]

[2] = cited from earlier work
[3] = 25° C./60% RH Closed bottles, 15 days
[4] = 25° C./60% RH Closed bottles, 30 days
[5] = 25° C./60% RH Open bottles, 7 days
[6] = 25° C./60% RH Open bottles, 15 days
[7] = 40° C./75% RH Closed bottles, 15 days
[8] = 40° C./75% RH Closed bottles, 30 days

- Imp. 1 RRT 1.93 [1, 3]: 0.01%
- Imp. 2 RRT 2.21 [1, 3]: 0.00%
- Imp. 5a RRT 2.34 [1, 3]: 0.01%
- Imp. 5b RRT 2.77 [1, 3]: 0.00%
- Imp. 6 RRT 1.20 [1, 3]: 0.00%
- Max, single unknown impurity [1, 3]: 0.03%
- Total impurities [1, 3]: 0.08%
- Imp. 1 RRT 1.93 [1, 4]: 0.03%
- Imp. 2 RRT 2.21 [1, 4]: 0.01%
- Imp. 5a RRT 2.34 [1, 4]: 0.01%
- Imp. 5b RRT 2.77 [1, 4]: 0.00%
- Imp. 6 RRT 1.20 [1, 4]: 0.00%
- Max, single unknown impurity [1, 4]: 0.03%
- Total impurities [1, 4]: 0.08%
- Imp. 1 RRT 1.93 [1, 5]: 0.03%
- Imp. 2 RRT 2.21 [1, 5]: 0.01%
- Imp. 5a RRT 2.34 [1, 5]: 0.02%
- Imp. 5b RRT 2.77 [1, 5]: 0.00%
- Imp. 6 RRT 1.20 [1, 5]: 0.00%
- Max, single unknown impurity [1, 5]: 0.05%
- Total impurities [1, 5]: 0.18%
- Imp. 1 RRT 1.93 [1, 6]: 0.04%
- Imp. 2 RRT 2.21 [1, 6]: 0.01%
- Imp. 5a RRT 2.34 [1, 6]: 0.00%
- Imp. 5b RRT 2.77 [1, 6]: 0.00%
- Imp. 6 RRT 1.20 [1, 6]: 0.00%
- Max, single unknown impurity [1, 6]: 0.02%
- Total impurities [1, 6]: 0.11%
- Imp. 1 RRT 1.93 [1, 7]: 0.03%
- Imp. 2 RRT 2.21 [1, 7]: 0.01%
- Imp. 5a RRT 2.34 [1, 7]: 0.01%
- Imp. 5b RRT 2.77 [1, 7]: 0.01%
- Imp. 6 RRT 1.20 [1, 7]: 0.00%
- Max, single unknown impurity [1, 7]: 0.02%
- Total impurities [1, 7]: 0.12%
- Imp. 1 RRT 1.93 [1, 8]: 0.03%
- Imp. 2 RRT 2.21 [1, 8]: 0.01%
- Imp. 5a RRT 2.34 [1, 8]: 0.01%
- Imp. 5b RRT 2.77 [1, 8]: 0.00%
- Imp. 6 RRT 1.20 [1, 8]: 0.00%
- Max, single unknown impurity [1, 8]: 0.03%
- Total impurities [1, 8]: 0.11%
- Imp. 1 RRT 1.93 ([1]; 60° C. Closed bottles, 1 day): 0.03%
- Imp. 2 RRT 2.21 ([1]; 60° C. Closed bottles, 1 day): 0.01%
- Imp. 5a RRT 2.34 ([1]; 60° C. Closed bottles, 1 day): 0.01%
- Imp. 5b RRT 2.77 ([1]; 60° C. Closed bottles, 1 day): 0.00%
- Imp. 6 RRT 1.20 ([1]; 60° C. Closed bottles, 1 day): 0.00%
- Max, single unknown impurity ([1]; 60° C. Closed bottles, 1 day): 0.02%
- Total impurities ([1]; 60° C. Closed bottles, 1 day): 0.10%
- Imp. 1 RRT 1.93 ([1]; t = 0): 0.02%
- Imp. 2 RRT 2.21 ([1]; t = 0): 0.01%
- Imp. 5a RRT 2.34 ([1]; t = 0): 0.00%
- Imp. 5b RRT 2.77 ([1]; t = 0): 0.01%
- Imp. 6 RRT 1.20 ([1]; t = 0): 0.00%
- Max, single unknown impurity ([1]; t = 0): 0.03%
- Total impurities ([1]; t = 0): 0.07%
SMILES: NC(=O)N[C@@H](CCC(=O)O)C(=O)O [Carglumic Acid, Carglumic acid]
- Solubility ([2]; boiling water): soluble
- Solubility ([2]; cold water): slightly soluble
- Solubility ([2]; organic solvents (cyclohexane, dichloromethane, ether)): practically insoluble
